# Source: patent publication US4742045A, “Glycopeptide antibiotics” (SmithKline Beckman Corporation, priority 1986, dated 1988)
# Where two headings read alike, the source gives them in different places.
# Experiments:
# STAPH. AUREUS HH 127 = assay: prophylactic activity, dosing preinfection; type: in vivo, mice
# Streptococcus faecalis = assay: standard microtiter assay, minimum inhibitory concentration; type: cell-based
# Text: (§1) Representative results of standard microtiter assays are reported in Tables 1, 2 and 3 which follow, as the minimum inhibitory concentration of antibiotic (μg/ml).
# (§2) In Table 1, test organisms 1-13 were different strains of Staphylococcus aureus, and 14-16 were different strains of Staphylococcus epidermidis. In Table 2, test organisms 1-5 were different strains of S. aureus; 6, 8, 12 and 14 were different strains of S. epidermidis; 7 was a Staphylococcus haemolyticus; 9 and 10 were different strains of Streptococcus faecalis; 11 was a Streptococcus pyogenes; and 13 was a Staphylococcus saprophyticus. In Table 3, test organisms 1-3 were different strains of S. aureus; 4 and 6 were different strains of S. epidermidis; 5 was a S. haemolyticus and 7 and 8 were different strains of Streptococcus faecalis. Except where individual components are indicated, the CWI-785 antibiotic employed was the CWI-785 complex; in some cases, HCl salts of the CWI-785 antibiotic were employed.
# (§3) The number of strains tested is shown in parentheses below each organism. The average MIC is reported in μg/ml.
# (§4) In Table 5 are shown data from standard microtiter assays carried out in a presence of no serum, 50% human serum (hum.) and 50% mouse serum (mse.). The test organisms were 1: S. aureus; 2,4 and 5: different strains of S. epidermidis; 3: S. haemolyticus; 6: S. saprophyticus; 7 and 8: different strains of S. faecalis.
# Staphylococcus aureus = assay: as above; type: cell-based
# Text: as §1, §2, §3, §4
# [1] = test system: Staphylococcus epidermidis; assay: as above; type: cell-based
# Text: as §1, §2, §4
# [2] = test system: Staphylococcus haemolyticus; assay: as above; type: cell-based; details: Table 3 test organism 5, S. haemolyticus
# Text: as §1, §2, §4
# [3] = test system: buffered rumen fluid from a donor steer; assay: 23 hour flask rumen fermentation, volatile fatty acid production
# Procedure: The effects of each additive on 23 hour flask rumen fermentation were assayed. Each flask contained 10 ml of rumen fluid and 10 ml of nutrient broth comprising (mg/flask): casein hydrolysate: 20, maltose: 100, urea: 15, solka floc (cellulose): 400 and starch: 100. The flasks were incubated on a shaker at 39° C.
# In Table A, ACE is acetate, PRO is propionate, IBU is isobutyrate, BUT is butyrate, IVA is isovalerate, VAL is valerate, TOTAL is total VFA and %PR is the amount of propionate relative to TOTAL. Amounts of each VFA are reported as percentages of control ruminant fluid, that is, without additive.
compound,measurement,setting,value
CNC(C(=O)NC1C(=O)NC(CC[S+](C)[O-])C(=O)NC2C(=O)NC3C(=O)NC(C(=O)NC(C(=O)O)c4cc(O)cc(O)c4-c4cc3ccc4O)C(OC3CC(N)C(O)C(C)O3)c3ccc(c(Cl)c3)Oc3cc2cc(c3O)Oc2ccc(cc2)C1O)c1ccc(O)cc1.Cl (stereo not drawn) [HPB3 hydrochloride],ED50,"STAPH. AUREUS HH 127; Table 7, vs Staph. aureus HH 127 (S.C.), read-out: ED50",1.25 mg/kg
same,PERCENT SURVIVAL,"STAPH. AUREUS HH 127; Table 7: 40 mg/kg, 4 hr preinfection, S.C.",100%
same,survival printed in parentheses under ED 50,"STAPH. AUREUS HH 127; Table 8, printed with ED 50 <0.156",90%
same,ED50,"STAPH. AUREUS HH 127; Table 8, vs Staph. aureus HH 127 (I.V.)",< 0.156 mg/kg
same,PERCENT SURVIVAL,"STAPH. AUREUS HH 127; Table 8: 40 mg/kg (I.V.), 6 hr preinfection",60%
"CN[C@H](C(=O)NC1C(=O)NC(CCSC)C(=O)NC2C(=O)NC3C(=O)NC(C(=O)NC(C(=O)O)c4cc(O)cc(O)c4-c4cc3ccc4O)C(O)c3ccc(c(Cl)c3)Oc3cc2cc(c3O)Oc2ccc(cc2)C1O)c1ccc(O)cc1 (stereo partly drawn) [CWI-785B""-aglycone]",minimum inhibitory concentration,"Streptococcus faecalis; Table 3 test organism 7, Streptococcus faecalis strain",3.1 µg/mL
same,minimum inhibitory concentration,"Streptococcus faecalis; Table 3 test organism 8, Streptococcus faecalis strain",1.6 µg/mL
same,minimum inhibitory concentration,"Staphylococcus aureus; Table 3 test organism 1, S. aureus strain",25.0 µg/mL
same,minimum inhibitory concentration,"Staphylococcus aureus; Table 3 test organism 2, S. aureus strain",25.0 µg/mL
same,minimum inhibitory concentration,"Staphylococcus aureus; Table 3 test organism 3, S. aureus strain",25.0 µg/mL
same,minimum inhibitory concentration,"[1]; Table 3 test organism 4, S. epidermidis strain",25.0 µg/mL
same,minimum inhibitory concentration,"[1]; Table 3 test organism 6, S. epidermidis strain",25.0 µg/mL
same,minimum inhibitory concentration,[2],50.0 µg/mL
"CC[C@@]1([C@@H]2O[C@@H]([C@H]3O[C@@](O)(CO)[C@H](C)C[C@@H]3C)C[C@@H]2C)CC[C@H]([C@]2(C)CC[C@]3(C[C@H](O)[C@@H](C)[C@@H]([C@@H](C)[C@@H](OC)[C@H](C)C(=O)O)O3)O2)O1 [Monensin, monensin]",ACE (acetate),[3]; 0.50 PPM,108 percentages of control
same,BUT (butyrate),[3]; 0.50 PPM,100 percentages of control
same,IBU (isobutyrate),[3]; 0.50 PPM,101 percentages of control
same,IVA (isovalerate),[3]; 0.50 PPM,246 percentages of control
same,PRO (propionate),[3]; 0.50 PPM,96 percentages of control
same,TOTAL (total VFA),[3]; 0.50 PPM,105 percentages of control
same,VAL (valerate),[3]; 0.50 PPM,114 percentages of control
same,ACE (acetate),[3]; 5.00 PPM,96 percentages of control
same,BUT (butyrate),[3]; 5.00 PPM,60 percentages of control
same,IBU (isobutyrate),[3]; 5.00 PPM,77 percentages of control
same,IVA (isovalerate),[3]; 5.00 PPM,106 percentages of control
same,PRO (propionate),[3]; 5.00 PPM,174 percentages of control
same,TOTAL (total VFA),[3]; 5.00 PPM,103 percentages of control
same,VAL (valerate),[3]; 5.00 PPM,41 percentages of control
same,ACE (acetate),[3]; 50.00 PPM,91 percentages of control
same,BUT (butyrate),[3]; 50.00 PPM,53 percentages of control
same,IBU (isobutyrate),[3]; 50.00 PPM,104 percentages of control
same,IVA (isovalerate),[3]; 50.00 PPM,134 percentages of control
same,PRO (propionate),[3]; 50.00 PPM,211 percentages of control
same,VAL (valerate),[3]; 50.00 PPM,38 percentages of control
